From ChEMBL document CHEMBL1208707, “T-type calcium channel blockers: spiro-piperidine azetidines and azetidinones-optimization, design and synthesis” (Bioorg Med Chem Lett, 2010)
pIC50: −log10 of the molar value.

Columns and labels:
Assay type in all cases: cell-based
[1] = biological target: T1, Voltage-dependent T-type calcium channel subunit alpha-1H (Homo sapiens, UniProt O95180); assay: Inhibition of human CaV3.2 expressed in HEK293 cells at -100 mV membrane potential by Ionworks HT assay
[2] = biological target: T1, Voltage-dependent T-type calcium channel subunit alpha-1H; assay: Inhibition of human CaV3.2 expressed in HEK293 cells at -100 mV membrane potential by whole cell path clamp method
[3] = biological target: Transient receptor potential cation channel subfamily V member 1 (Homo sapiens) (UniProt Q8NER1); assay: Inhibition of TRPV1 expressed in HEK293 assessed as capsaicin activation cells at 3.3 ug/mL by FLIPR assay
Sequence of Transient receptor potential cation channel subfamily V member 1 (Homo sapiens) (Q8NER1 whole entry): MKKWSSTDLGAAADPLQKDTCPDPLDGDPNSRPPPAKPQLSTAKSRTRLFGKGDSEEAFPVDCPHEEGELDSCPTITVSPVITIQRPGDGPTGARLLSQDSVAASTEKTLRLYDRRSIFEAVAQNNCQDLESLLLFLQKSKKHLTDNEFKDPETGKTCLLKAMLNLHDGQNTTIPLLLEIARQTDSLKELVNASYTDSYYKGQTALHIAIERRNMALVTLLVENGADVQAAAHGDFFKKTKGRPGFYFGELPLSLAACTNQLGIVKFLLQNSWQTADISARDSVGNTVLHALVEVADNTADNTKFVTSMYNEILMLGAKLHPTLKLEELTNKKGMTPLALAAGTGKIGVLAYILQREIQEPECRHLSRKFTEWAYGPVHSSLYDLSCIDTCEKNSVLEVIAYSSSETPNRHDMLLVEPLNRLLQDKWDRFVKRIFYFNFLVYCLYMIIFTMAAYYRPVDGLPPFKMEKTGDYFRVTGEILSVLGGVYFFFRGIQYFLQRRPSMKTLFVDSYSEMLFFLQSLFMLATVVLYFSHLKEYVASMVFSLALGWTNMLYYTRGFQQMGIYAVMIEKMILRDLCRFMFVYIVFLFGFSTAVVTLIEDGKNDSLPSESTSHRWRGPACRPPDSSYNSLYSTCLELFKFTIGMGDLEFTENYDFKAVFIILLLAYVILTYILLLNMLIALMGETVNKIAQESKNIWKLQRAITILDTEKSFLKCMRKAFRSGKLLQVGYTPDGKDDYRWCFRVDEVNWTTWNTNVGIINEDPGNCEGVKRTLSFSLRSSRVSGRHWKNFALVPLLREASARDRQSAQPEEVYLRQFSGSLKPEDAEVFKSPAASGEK

T1 sequence (O95180 whole entry): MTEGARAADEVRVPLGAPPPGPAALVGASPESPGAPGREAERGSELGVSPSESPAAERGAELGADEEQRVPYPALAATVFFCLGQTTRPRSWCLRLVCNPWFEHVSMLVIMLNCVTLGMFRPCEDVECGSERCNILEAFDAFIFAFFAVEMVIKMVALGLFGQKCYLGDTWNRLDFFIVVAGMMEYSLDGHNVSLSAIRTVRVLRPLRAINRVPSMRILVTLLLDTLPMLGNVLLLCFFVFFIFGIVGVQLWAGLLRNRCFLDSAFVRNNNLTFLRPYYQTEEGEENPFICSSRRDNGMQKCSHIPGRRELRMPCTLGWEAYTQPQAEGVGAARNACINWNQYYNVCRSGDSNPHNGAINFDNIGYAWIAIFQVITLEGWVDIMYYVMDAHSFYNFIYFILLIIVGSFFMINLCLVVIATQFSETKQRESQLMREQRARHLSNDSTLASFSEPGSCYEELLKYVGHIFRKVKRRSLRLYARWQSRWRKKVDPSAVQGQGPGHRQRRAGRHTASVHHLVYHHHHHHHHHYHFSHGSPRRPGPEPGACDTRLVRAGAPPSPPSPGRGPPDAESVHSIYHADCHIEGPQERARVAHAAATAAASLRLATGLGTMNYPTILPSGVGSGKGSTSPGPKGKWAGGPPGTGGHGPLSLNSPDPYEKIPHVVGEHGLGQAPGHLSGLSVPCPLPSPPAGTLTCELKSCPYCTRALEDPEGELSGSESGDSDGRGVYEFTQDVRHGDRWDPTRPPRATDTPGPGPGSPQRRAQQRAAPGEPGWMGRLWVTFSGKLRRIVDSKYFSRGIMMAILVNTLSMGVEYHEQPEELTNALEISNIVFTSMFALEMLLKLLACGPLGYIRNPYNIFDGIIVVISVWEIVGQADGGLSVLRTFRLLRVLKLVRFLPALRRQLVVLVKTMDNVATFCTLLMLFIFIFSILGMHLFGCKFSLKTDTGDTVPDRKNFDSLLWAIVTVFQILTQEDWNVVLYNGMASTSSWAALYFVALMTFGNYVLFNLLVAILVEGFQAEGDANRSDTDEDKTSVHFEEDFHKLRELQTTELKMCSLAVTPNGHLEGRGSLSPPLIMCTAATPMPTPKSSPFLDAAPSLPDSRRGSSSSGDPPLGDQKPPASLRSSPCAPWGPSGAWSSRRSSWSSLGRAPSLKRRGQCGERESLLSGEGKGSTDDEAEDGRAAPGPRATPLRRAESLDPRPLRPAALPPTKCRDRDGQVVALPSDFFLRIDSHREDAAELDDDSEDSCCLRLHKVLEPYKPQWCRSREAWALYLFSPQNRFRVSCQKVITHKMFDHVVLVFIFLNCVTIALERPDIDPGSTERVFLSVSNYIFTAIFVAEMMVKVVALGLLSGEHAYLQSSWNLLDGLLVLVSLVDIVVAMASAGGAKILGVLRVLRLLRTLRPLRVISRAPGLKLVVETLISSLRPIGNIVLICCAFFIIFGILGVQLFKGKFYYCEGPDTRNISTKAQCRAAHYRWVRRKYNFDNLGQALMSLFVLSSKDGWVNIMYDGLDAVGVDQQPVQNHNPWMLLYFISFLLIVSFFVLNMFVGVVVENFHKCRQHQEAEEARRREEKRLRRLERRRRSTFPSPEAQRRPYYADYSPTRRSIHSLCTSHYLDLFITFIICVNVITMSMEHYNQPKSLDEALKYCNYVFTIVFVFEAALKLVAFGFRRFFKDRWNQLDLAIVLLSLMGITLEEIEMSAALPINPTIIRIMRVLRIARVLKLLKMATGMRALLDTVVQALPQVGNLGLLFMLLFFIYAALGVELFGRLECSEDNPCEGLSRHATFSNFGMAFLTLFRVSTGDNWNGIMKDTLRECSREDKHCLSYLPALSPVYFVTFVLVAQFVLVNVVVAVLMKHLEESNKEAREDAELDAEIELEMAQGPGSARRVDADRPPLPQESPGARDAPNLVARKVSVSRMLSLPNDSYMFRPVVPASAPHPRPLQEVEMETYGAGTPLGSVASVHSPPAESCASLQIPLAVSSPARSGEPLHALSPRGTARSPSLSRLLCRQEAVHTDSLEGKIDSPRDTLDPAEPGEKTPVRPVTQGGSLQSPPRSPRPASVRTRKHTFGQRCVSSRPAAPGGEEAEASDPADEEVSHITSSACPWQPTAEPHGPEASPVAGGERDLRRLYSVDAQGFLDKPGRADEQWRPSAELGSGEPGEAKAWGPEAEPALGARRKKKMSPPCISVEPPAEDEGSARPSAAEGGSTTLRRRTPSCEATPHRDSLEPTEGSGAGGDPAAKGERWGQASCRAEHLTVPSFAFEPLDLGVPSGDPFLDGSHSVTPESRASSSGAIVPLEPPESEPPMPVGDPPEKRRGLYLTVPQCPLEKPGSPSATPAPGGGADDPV

Row | pIC50 [1] | pIC50 [2] | inhibition [3] [%] | Structure (SMILES)
1 |  |  | 30.1 | O=C(Nc1cc(F)cc(F)c1)N1CCC2(CC1)CN(c1cccc(F)c1)C2c1ccc(Cl)cc1 (stereo in doubt; 35b) [listing 1 of 2 here]
2 | 6.10 |  | 3.12 | CC[C@H](C)[C@H](NC(=O)N1CCC2(CC1)C(=O)N(C)C2c1ccc(Cl)cc1)C(=O)OC (mixture of isomers)
3 | 6.49 | 6.15 |  | CC[C@H](C)[C@H](NC(=O)N1CCC2(CC1)CN(C1CC1)C2c1ccc(Cl)cc1)C(=O)OC (mixture of isomers)
4 | 6.67 |  | 25 | CN1CC2(CCN(C(=O)Nc3cc(F)cc(F)c3)CC2)C1c1ccc(Cl)cc1 (racemic)
5 |  |  | 19.3 | O=C(Nc1cc(F)cc(F)c1)N1CCC2(CC1)C(=O)N(c1cccc(F)c1)C2c1ccc(Cl)cc1 (stereo in doubt; 36a) [listing 1 of 2 here]
6 |  |  | 6.18 | CC[C@H](C)[C@H](NC(=O)N1CCC2(CC1)C(=O)N(c1cccc(F)c1)C2c1ccc(Cl)cc1)C(=O)OC (stereo in doubt; 23a) [listing 2 of 2 here]
7 | 6.94 | 6.91 |  | CC[C@H](C)[C@H](NC(=O)N1CCC2(CC1)CN(C(C)C)C2c1ccc(Cl)cc1)C(=O)OC (stereo in doubt; 2a)
8 | 6.06 |  |  | CC[C@H](C)[C@H](NC(=O)N1CCC2(CC1)C(=O)N(c1cccc(F)c1)C2c1ccc(Cl)cc1)C(=O)OC (stereo in doubt; 23b) [listing 1 of 2 here]
9 | 6.75 |  |  | O=C(Nc1cc(F)cc(F)c1)N1CCC2(CC1)C(=O)N(c1ccc(F)c(Cl)c1)C2c1ccccn1 (stereo in doubt; 39b)
10 |  |  | 18 | CC[C@H](C)[C@H](NC(=O)N1CCC2(CC1)C(=O)N(c1cccc(F)c1)C2c1ccc(Cl)cc1)C(=O)OC(C)C (some centres undefined)
11 | 7.77 |  |  | O=C(Nc1cccc(C(F)(F)F)c1)N1CCC2(CC1)C(=O)N(c1ccc(F)c(F)c1)C2c1ccccn1 (stereo in doubt; 41a)
12 | 5.48 |  | 6 | COC(=O)[C@H](CO)NC(=O)N1CCC2(CC1)C(=O)N(c1cccc(F)c1)C2c1ccc(Cl)cc1 (some centres undefined)
13 | 5.46 |  |  | O=C(Nc1cc(F)cc(F)c1)N1CCC2(CC1)CN(c1cccc(F)c1)C2c1ccc(Cl)cc1 (stereo in doubt; 35a) [listing 2 of 2 here]
14 |  |  | 12.7 | N#Cc1cccc(NC(=O)N2CCC3(CC2)C(=O)N(c2cccc(F)c2)C3c2ccc(Cl)cc2)c1 (stereo in doubt; 37b) [listing 2 of 2 here]

More lines, now with the values behind:

Row | Structure (SMILES) | pIC50 [1] | pIC50 [2] | inhibition [3] [%]
15 | CC[C@H](C)[C@H](NC(=O)N1CCC2(CC1)C(=O)N(c1cccc(F)c1)C2c1ccc(Cl)cc1)C(=O)OC (stereo in doubt; 23a) [listing 1 of 2 here] | 7.35 | 6.96 | 
16 | CC[C@H](C)[C@H](NC(=O)N1CCC2(CC1)CN(c1cccc(F)c1)C2c1ccc(Cl)cc1)C(=O)OC (stereo in doubt; 22b) [listing 1 of 2 here] |  |  | 12.5
17 | CC[C@H](C)[C@H](NC(=O)N1CCC2(CC1)CN(C(C)C)C2c1ccc(Cl)cc1)C(=O)OC (stereo in doubt; 2b) | 6.13 | 5.50 | 
18 | O=C(Nc1cc(F)cc(F)c1)N1CCC2(CC1)C(=O)N(c1cccc(F)c1)C2c1ccc(Cl)cc1 (stereo in doubt; 36b) |  |  | 6.79
19 | O=C(Nc1ccc(F)c(F)c1)N1CCC2(CC1)C(=O)N(c1ccc(F)c(Cl)c1)C2c1ccccn1 (stereo in doubt; 40a) |  |  | 48
20 | CC[C@H](C)[C@H](NC(=O)N1CCC2(CC1)CN(C)C2c1ccc(Cl)cc1)C(=O)OC (mixture of isomers) | 6.39 |  | 25.2
21 | O=C(Nc1cc(F)cc(F)c1)N1CCC2(CC1)C(=O)N(c1cccc(Cl)c1)C2c1ccccn1 (stereo in doubt; 44a) |  |  | 38
22 | O=C(Nc1ccc(F)c(F)c1)N1CCC2(CC1)C(=O)N(c1cccc(Cl)c1)C2c1cccc[n+]1[O-] (stereo in doubt; form 2) | 5.82 |  | 
23 | CC[C@H](C)[C@H](NC(=O)N1CCC2(CC1)CN(c1cccc(F)c1)C2c1ccc(Cl)cc1)C(=O)OC (stereo in doubt; 22a) [listing 1 of 2 here] |  |  | 8.5
24 | N#Cc1cccc(NC(=O)N2CCC3(CC2)C(=O)N(c2cccc(F)c2)C3c2ccc(Cl)cc2)c1 (stereo in doubt; 37b) [listing 1 of 2 here] | 5.97 |  | 
25 | CC[C@H](C)[C@H](NC(=O)N1CCC2(CC1)C(=O)N(c1cccc(F)c1)C2c1ccc(Cl)cc1)C(=O)NC (some centres undefined) |  |  | 4.8
26 | CCC(C)NC(=O)N1CCC2(CC1)C(=O)N(c1cccc(F)c1)C2c1ccc(Cl)cc1 (centres undefined) | 5.90 |  | 5.2
27 | CC[C@H](C)[C@H](NC(=O)N1CCC2(CC1)CN(C(C)C)C2c1ccc(Cl)cc1)C(=O)OC (stereo in doubt; 2) |  |  | 87.1
28 | O=C(Nc1cc(F)cc(F)c1)N1CCC2(CC1)C(=O)N(c1cncc(Cl)c1)C2c1ccccn1 (racemic) |  |  | 6.7
29 | COC(=O)[C@H](COC(C)(C)C)NC(=O)N1CCC2(CC1)C(=O)N(c1cccc(F)c1)C2c1ccc(Cl)cc1 (some centres undefined) |  |  | 4.4
30 | O=C1N(c2ccc(F)c(Cl)c2)C(c2ccccn2)C12CCN(c1nc3cc(F)c(C(F)(F)F)cc3[nH]1)CC2 (stereo in doubt; 52b) | 7.51 | 6.97 | 

Row | Structure (SMILES) | pIC50 [1] | pIC50 [2] | inhibition [3] [%]
31 | N#Cc1cccc(N2C(=O)C3(CCN(C(=O)Nc4cc(F)cc(F)c4)CC3)C2c2ccccn2)c1 (centres undefined) |  | 4.71 | 
32 | CC(C)CN1CC2(CCN(C(=O)Nc3cc(F)cc(F)c3)CC2)C1c1ccc(Cl)cc1 (racemic) | 6.75 |  | 53
33 | O=C(Nc1ccc(F)c(F)c1)N1CCC2(CC1)C(=O)N(c1ccc(F)c(Cl)c1)C2c1ccccn1 (stereo in doubt; 40b) [listing 1 of 2 here] |  |  | 39
34 | O=C(Nc1cc(F)cc(F)c1)N1CCC2(CC1)CN(c1cccc(F)c1)C2c1ccc(Cl)cc1 (stereo in doubt; 35a) [listing 1 of 2 here] |  |  | 6.22
35 | O=C(Nc1cc(F)cc(F)c1)N1CCC2(CC1)C(=O)N(C1CC1)C2c1ccc(Cl)cc1 (racemic) | 5.65 |  | 34.2
36 | N#Cc1cccc(N2C(=O)C3(CCN(C(=O)Nc4cc(F)cc(F)c4)CC3)C2c2ccccn2)c1 (racemic) | 5.62 |  | 
37 | O=C(Nc1ccc(F)c(F)c1)N1CCC2(CC1)C(=O)N(c1cccc(Cl)c1)C2c1ccccn1 (stereo in doubt; 42b) |  |  | 89
38 | CC[C@H](C)[C@H](NC(=O)N1CCC2(CC1)CN(C(C)C)C2c1ccc(F)cc1)C(=O)OC (mixture of isomers) | 6.59 |  | 13.4
39 | CC[C@H](C)[C@H](NC(=O)N1CCC2(CC1)C(=O)N(c1cccc(F)c1)C2c1ccc(Cl)cc1)C(=O)OC (stereo in doubt; 23b) [listing 2 of 2 here] |  |  | 8.79
40 | O=C(Nc1cc(F)cc(F)c1)N1CCC2(CC1)C(=O)N(c1cccc(F)c1)C2c1ccc(Cl)cc1 (stereo in doubt; 36a) [listing 2 of 2 here] | 6.23 |  | 
41 | N#Cc1cccc(NC(=O)N2CCC3(CC2)C(=O)N(c2cccc(F)c2)C3c2ccc(Cl)cc2)c1 (stereo in doubt; 37a) |  |  | 4.79
42 | CC[C@H](C)[C@H](NC(=O)N1CCC2(CC1)CN(c1cccc(F)c1)C2c1ccc(Cl)cc1)C(=O)OC (stereo in doubt; 22b) [listing 2 of 2 here] | 5.49 |  | 
43 | O=C(Nc1cc(F)cc(F)c1)N1CCC2(CC1)CN(c1cccc(F)c1)C2c1ccc(Cl)cc1 (stereo in doubt; 35b) [listing 2 of 2 here] | 5.49 |  | 
44 | O=C(Nc1ccc(F)c(F)c1)N1CCC2(CC1)C(=O)N(c1ccc(F)c(Cl)c1)C2c1ccccn1 (stereo in doubt; 40b) [listing 2 of 2 here] | 6.40 |  | 
45 | N#Cc1cccc(NC(=O)N2CCC3(CC2)C(=O)N(c2cccc(Cl)c2)C3c2ccccn2)c1 (stereo in doubt; 43a) |  |  | 30
46 | CC[C@H](C)[C@H](NC(=O)N1CCC2(CC1)CN(c1cccc(F)c1)C2c1ccc(Cl)cc1)C(=O)OC (stereo in doubt; 22a) [listing 2 of 2 here] | 6.84 |  | 
